The values below come from article PMC5915715, “Inhibitors of both the N-methyl lysyl- and arginyl-demethylase activities of the JmjC oxygenases” (Philosophical Transactions of the Royal Society B: …, 2018).

T1: KDM4E (JMJD2E); KDM4E(1-377) (Homo sapiens, UniProt B2RXH2)
T1 construct: residues 1-377 (JmjN and JmjC domains); recombinant, E. coli BL21(DE3)-R3 with pRARE2
T1 sequence (B2RXH2 1-377): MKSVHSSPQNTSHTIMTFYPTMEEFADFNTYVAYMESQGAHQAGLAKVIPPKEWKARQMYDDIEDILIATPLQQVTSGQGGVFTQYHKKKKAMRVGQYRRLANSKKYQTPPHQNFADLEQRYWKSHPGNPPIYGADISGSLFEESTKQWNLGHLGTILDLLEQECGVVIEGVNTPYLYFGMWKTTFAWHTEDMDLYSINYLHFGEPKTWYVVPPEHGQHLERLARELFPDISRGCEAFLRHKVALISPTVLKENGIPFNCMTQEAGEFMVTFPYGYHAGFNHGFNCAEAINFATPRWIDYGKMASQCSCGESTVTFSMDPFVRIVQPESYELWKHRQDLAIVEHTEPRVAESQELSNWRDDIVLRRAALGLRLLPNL

B1: KDM4E (JMJD2E); KDM4E(1-377) (Homo sapiens) (protein)
chain: MKSVHSSPQNTSHTIMTFYPTMEEFADFNTYVAYMESQGAHQAGLAKVIPPKEWKARQMYDDIEDILIATPLQQVTSGQGGVFTQYHKKKKAMRVGQYRRLANSKKYQTPPHQNFADLEQRYWKSHPGNPPIYGADISGSLFEESTKQWNLGHLGTILDLLEQECGVVIEGVNTPYLYFGMWKTTFAWHTEDMDLYSINYLHFGEPKTWYVVPPEHGQHLERLARELFPDISRGCEAFLRHKVALISPTVLKENGIPFNCMTQEAGEFMVTFPYGYHAGFNHGFNCAEAINFATPRWIDYGKMASQCSCGESTVTFSMDPFVRIVQPESYELWKHRQDLAIVEHTEPRVAESQELSNWRDDIVLRRAALGLRLLPNL
notes: residues 1-377 (JmjN and JmjC domains); recombinant, E. coli BL21(DE3)-R3 with pRARE2

As a reminder, the Km is the concentration of substrate that gives half-maximal velocity.

In one series the target is T1, KDM4E (JMJD2E); KDM4E(1-377). Briefly: RapidFire MS demethylation assay. It is filed as biochemical. Conditions: read-out: pIC50 ± s.e.m. / inhibition of H3(1-15)K9me2 demethylation (converted).
Turning to `CC(C)c1c(-c2ccccc2)[nH]c2c(C#N)cnn2c1=O` [CPI-455], the IC50 is 4.47 µM.

Consider `O=C(O)CC[C@@H](O)C(=O)O` [D-2HG], for which the IC50 is 11.5 µM.

`CCN(CCN(C)C)C(=O)CNCc1cc(C(=O)O)ccn1` [KDM5-C49]: the IC50 is 2.09 µM.

As to `CCN(CCN(C)C)C(=O)CNCc1cc(C(N)=O)ccn1` [KDOAM25], the IC50 was 182 µM.

Take `O=C(O)CC[C@H](O)C(=O)O` [L-2HG]: the IC50 was 13.5 µM.

`CN(C)CCCNC(=O)c1ccc(-c2cc(O)c3ncccc3c2)cc1` [ML324]: the IC50 was 4.79 µM.

As to `CC(=O)N(O)CCCCCNC(=O)CCC(=O)N(O)CCCCCNC(=O)CCC(=O)N(O)CCCCCN` [deferoxamine], the IC50 was 2.4 µM.

For the molecule `O=C(O)/C=C/C(=O)O` [fumarate], the IC50 was 1950 µM.

As to `O=C(O)CCC(=O)O` [succinate], the IC50 was 148 µM.

Substrate in a further series: O=C(O)CCC(=O)C(=O)O
Briefly: steady-state kinetics (supplement). It is filed as biochemical, Homo sapiens. Conditions: 50 mM HEPES pH 7.5, Fe(II), ascorbate, approximate value, peptide substrate not stated.
As for B1, the Km is reported as 10 µM.

A further series deals with T1, KDM4E (JMJD2E); KDM4E(1-377). Briefly: RapidFire MS demethylation assay. It is filed as biochemical. Conditions: KDM activity: 5 µM H3(1-15)K9me2, 0.25 µM enzyme, 10 µM Fe(II), 100 µM ascorbate, 10 µM 2OG, 50 mM HEPES pH 7.5, 15 min; iron chelator, may act by chelating iron in solution; unreliable (printed s.e.m). The text has this: RapidFire MS demethylation assay on KDM4E (JMJD2E); KDM4E(1-377)
Turning to `O=C(O)CN(CCN(CC(=O)O)CC(=O)O)CC(=O)O` [EDTA], the “pIC50 ± s.e.m. / inhibition of H3(1-15)K9me2 demethylation” value is reported as 5.82 ± 6.53 -log10(M).
